The IC50 is the midpoint of a concentration-inhibition curve. The term Cmax denotes the highest concentration seen after dosing.

Read-outs that look alike come from different tables or passages of the source. Where only a bound is given, the exact number is not on record here.

The values below come from US10870618B2, “Histone deacetylase inhibitors and uses thereof” (MUSC FOUNDATION FOR RESEARCH DEVELOPMENT, priority 2016, dated 2020).

The test system of data set [1] is TA97a and TA100 S. typhimurium. In words: mini-Ames test. The settings on record: 96-well format. (In general: The Ames test uses bacterial strains that need an amino acid and regain growth without it when mutated back.)
From the text: Test were ran with TA97a (shown) and TA100 S. typhimurium.
Tests were run with TA97a (shown) and TA100 S. typhimurium.
The next data set relates to HEK293 Lysate. In words: Hek293 lysate inhibition assay. In kind it is biochemical.
For another data set, the target named is HDAC3 (Homo sapiens (Human), UniProt O15379). Briefly: Recombinant HDAC inhibition assay (HDAC3). The data set is classed as biochemical.
Sequence of HDAC3 (O15379 whole entry): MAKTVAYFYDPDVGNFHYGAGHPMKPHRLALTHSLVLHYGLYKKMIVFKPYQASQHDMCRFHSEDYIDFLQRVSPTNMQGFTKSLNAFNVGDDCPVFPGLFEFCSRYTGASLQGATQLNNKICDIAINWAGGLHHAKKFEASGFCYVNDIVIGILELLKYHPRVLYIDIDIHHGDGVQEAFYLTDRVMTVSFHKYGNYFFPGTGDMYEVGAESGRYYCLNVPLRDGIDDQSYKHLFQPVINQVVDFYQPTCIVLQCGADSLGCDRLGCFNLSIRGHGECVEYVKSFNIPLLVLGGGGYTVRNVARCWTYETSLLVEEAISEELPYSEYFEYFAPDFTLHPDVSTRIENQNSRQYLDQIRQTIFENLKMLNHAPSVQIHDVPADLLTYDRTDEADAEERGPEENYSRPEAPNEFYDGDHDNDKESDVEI
Sequence of HDAC3 (Q9Y618 395-489 partner): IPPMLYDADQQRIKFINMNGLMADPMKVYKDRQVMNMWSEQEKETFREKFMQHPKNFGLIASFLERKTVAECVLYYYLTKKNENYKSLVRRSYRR
In the next data set the target is HDAC2 (Homo sapiens (Human), UniProt Q92769). In words: Recombinant HDAC inhibition assay (HDAC2). In kind it is biochemical. How it is done: (§1) Recombinant HDACs 1, 2, and 3 (BPS Biosciences) were diluted to a concentration of 1 nM in HDAC buffer. 10 uL of this solution was added in 96-well format to black U-bottom plates. 10 uL of serially diluted inhibitor was added and a 2 hour pre incubation occurred at room temperature. 50 μM (final) of Acetylated Lysine-Aminomethyl coumarin-BOC in HDAC buffer solution was added and a second 2 hour incubation occurred at room temperature. 5 mg/mL trypsin, 1 μM trichostatin A solution in HDAC buffer was added to quench the reaction. Fluorescence was read at 360 (ex.)/460 (em.) using a Tecan M200 Pro. Data were normalized to control wells containing no inhibitor. IC50's were determined using GraphPad Prism's built in “log(inhibitor) vs. normalized response—Variable slope” function.
Sequence of HDAC2 (Q92769 whole entry): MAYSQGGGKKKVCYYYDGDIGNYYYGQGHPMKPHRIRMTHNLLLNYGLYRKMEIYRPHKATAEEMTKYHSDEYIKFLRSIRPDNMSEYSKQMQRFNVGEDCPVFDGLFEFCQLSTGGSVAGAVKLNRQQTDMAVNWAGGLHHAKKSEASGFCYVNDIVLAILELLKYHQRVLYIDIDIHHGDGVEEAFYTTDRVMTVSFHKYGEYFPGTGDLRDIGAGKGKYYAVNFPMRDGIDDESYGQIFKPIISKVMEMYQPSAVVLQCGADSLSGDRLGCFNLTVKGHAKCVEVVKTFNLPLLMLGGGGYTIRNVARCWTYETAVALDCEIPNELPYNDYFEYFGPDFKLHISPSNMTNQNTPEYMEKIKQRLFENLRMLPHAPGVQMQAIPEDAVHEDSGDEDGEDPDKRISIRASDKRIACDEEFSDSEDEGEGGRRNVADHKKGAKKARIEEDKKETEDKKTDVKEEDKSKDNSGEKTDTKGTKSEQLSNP

In the next data set the target is HDAC1 (Homo sapiens (Human), UniProt Q13547). Briefly: Recombinant HDAC inhibition assay (HDAC1). The data set is classed as biochemical. How it is done: as §1
Sequence of HDAC1 (Q13547 whole entry): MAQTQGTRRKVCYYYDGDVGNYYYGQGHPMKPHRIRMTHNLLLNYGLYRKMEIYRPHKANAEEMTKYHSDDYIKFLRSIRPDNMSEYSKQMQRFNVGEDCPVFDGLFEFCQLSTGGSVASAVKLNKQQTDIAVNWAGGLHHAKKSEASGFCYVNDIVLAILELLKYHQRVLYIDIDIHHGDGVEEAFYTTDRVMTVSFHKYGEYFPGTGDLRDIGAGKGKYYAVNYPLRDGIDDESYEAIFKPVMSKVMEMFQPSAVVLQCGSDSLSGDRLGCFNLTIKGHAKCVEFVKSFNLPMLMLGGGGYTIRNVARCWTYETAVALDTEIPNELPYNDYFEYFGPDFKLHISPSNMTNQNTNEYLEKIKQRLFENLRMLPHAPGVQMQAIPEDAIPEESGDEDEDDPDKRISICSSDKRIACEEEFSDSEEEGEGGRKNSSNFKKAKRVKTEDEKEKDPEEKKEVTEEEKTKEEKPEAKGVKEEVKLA
Another data set deals with Raw264.7. Briefly: HMGB-1 secretion by macrophages. The following applies: LPS plus ATP challenge. In kind it is cell-based.
The conditions of data set [2]: reported, cited from earlier work.
For data set [3] the following is noted: in human, reported; cited from earlier work.
Another data set has as its system MV4-11 cells. Briefly: Western blot analysis of MV4-11 cells. The data set is classed as cell-based. How it is done:
MV4-11 cells were cultured as described above. Cells were plated at 500 k cells/mL×3 mLs in clear, flat bottom 6 well plates. Cells were pre-incubated for 24 hours before addition of inhibitor at various concentrations. […] Cell pellets were lysed with RIPA buffer. RIPA buffer is comprised of 50 mM Tris Base, 150 mM NaCl, 5 mM EDTA, 0.1% (v/v) SDS, 0.5% (v/v) Sodium Deoxycholate, and 1% (v/v) Triton-x-100. After lysing, the suspension is ultra-sonicated and centrifuged at 15000 RPM for 15 minute at 4° C. 80 μL of supernatant was mixed with 40 μL of 15:85 (v/v) 3-mercaptoethanol:LDS solution. The mixture was heated at 90° C. for 15 minutes and stored for loading at −20° C. Prior to loading, the solution was flash thawed at 90° C. Lysates were run on Invitrogen NuPAGE 4-12% Bis-Tris 15 well gels at 170V for approximately 60 minutes in MES buffer. Gels were transferred to […] and ran at 30V for 180 minutes. Primary antibodies, purchased from Santa Cruz Biotechnology, were added in 5% (w/v) milk or 5% (w/v) Bovine Serum Albumin fraction V. The antibody was incubated with cellulose overnight at 4° C. before addition of secondary antibody in 5% (w/v) milk or 5% (w/v) Bovine Serum Albumin. Images were read using a GE ImageQuant LAS 4000. Global lighting adjustments of resulting images were made using Adobe Photoshop CC. Quantification was performed using Image Studio Lite 4.0.
On the technique in general: In western blotting, separated proteins are transferred to a membrane and probed.

Data set [4] deals with Raw246.7 macrophage cells. Briefly: NO production in activated macrophages. The data set is classed as cell-based. The settings on record: 100 nM, LPS and LPS+ATP. An excerpt:
Hypo-acetylation of histone H3 and H4 were also reversed with HDAC inhibitor treatments (yellow dash box). d.

Method for HDAC3: Recombinant HDACs 1, 2, and 3 (BPS Biosciences) were diluted to a concentration of 1 nM in HDAC buffer. 10 uL of this solution was added in 96-well format to black U-bottom plates. 10 uL of serially diluted inhibitor was added and a 2 hour pre incubation occurred at room temperature. 50 μM (final) of Acetylated Lysine-Aminomethyl coumarin-BOC in HDAC buffer solution was added and a second 2 hour incubation occurred at room temperature. 5 mg/mL trypsin, 1 μM trichostatin A solution in HDAC buffer was added to quench the reaction. […] Data were normalized to control wells containing no inhibitor. IC50's were determined using GraphPad Prism's built in “log(inhibitor) vs. normalized response—Variable slope” function.
Method for HEK293 Lysate: Hek293 cells were purchased from ATCC and cultured in Dulbecco's modified eagle's medium with glutamax and 10% (v/v) FBS. Cells were plated in 75 cm^2 flasks and incubated at 37° C. and 5% CO2 until −80% confluent. Cells were harvested, washed, and pelleted, lysed before protein concentration was determined using a Tecan M200 spectrophotometer in a BCA assay, and finally stored at −80° C. Upon need, lysate was thawed and diluted to 1 mg/mL of protein concentration with HDAC Buffer. […] The solution was buffered to a pH of 8 and addition of 1 mg/mL BSA was added. 10 μL of this diluted lysate solution was added in 96-well format black U-bottom plates. Serially diluted inhibitor solution was added and a 2 hour pre incubation occurred at 37° C. 50 μM (final) of Acetylated Lysine-Aminomethyl coumarin-BOC in HDAC buffer solution was added and a second 2 hour incubation occurred at 37° C. 5 mg/mL trypsin, 1 μM trichostatin A solution in HDAC buffer was added to quench the reaction. […] Data were normalized to control wells containing no inhibitor. IC50's were determined using GraphPad Prism's built in “log(inhibitor) vs. normalized response—Variable slope” function.

For `Nc1ccc2cc3ccccc3cc2c1` [2-aminoanthracene], the “mutagenicity (mini-Ames)” value in [1] is recorded as “Ames positive”.
On to `CCCCNNC(=O)c1ccc(OC)cc1` [Compound 1a, N′-butyl-4-methoxybenzohydrazide], for which the results for the IC50 in the data set with HEK293 Lysate and at HDAC3 were 727 ± 10.8 nM and 157 ± 28.6 nM, respectively.
For `CCCCNNC(=O)c1cc2ccccc2o1` [Compound 1b, N′-butylbenzofuran-2-carbohydrazide] the same measures were 1690 ± 38 nM and 1360 ± 197 nM.
For `CCCCNNC(=O)c1ccc(Oc2ccccc2)cc1` [Compound 1c, N′-butyl-4-phenoxybenzohydrazide] the same measures were 1690 ± 298 nM and 312 ± 42.8 nM.
On to `CCCCNNC(=O)c1cccnc1` [Compound 1d, N′-butylnicotinohydrazide], for which the IC50 was 4680 ± 909 nM with HEK293 Lysate and 1550 ± 430 nM at HDAC3.
Turning to `CCCCNNC(=O)c1cccs1` [Compound 1f, N′-butylthiophene-2-carbohydrazide], the IC50 came out at 3460 ± 669 nM with HEK293 Lysate and 904 ± 154 nM on HDAC3.
Taken in the same sequence, the figures for `CCCCNNC(=O)c1ccco1` [Compound 1g, N′-butylfuran-2-carbohydrazide] were over 10000 nM and 5000 ± 372 nM.
Take `CCCCNNC(=O)CCc1ccccc1` [Compound 1h, N′-butyl-3-phenylpropanehydrazide]: the IC50 in the data set on HEK293 Lysate was over 10000 nM; on HDAC3, 1890 ± 227 nM.
`CCCCNNC(=O)/C=C/c1ccccc1` [Compound 1i, N′-butylcinnamohydrazide]: the concentration for half-maximal inhibition (IC50) with HEK293 Lysate is 1440 ± 86.1 nM; at HDAC3, 294 ± 32.6 nM.
For `CCCCNNC(=O)c1cccc2ccccc12` [Compound 1j, N′-butyl-1-naphthohydrazide] the same measures were over 10000 nM and over 10000 nM.
`CCCCNNC(=O)c1ccc(CNC(=O)c2ccccc2)cc1` [Compound 1l, N-(4-(2-butylhydrazine-1-carbonyl)benzyl)benzamide]: the IC50 was 65.2 ± 10.4 nM at HDAC2 and 18.9 ± 2.74 nM on HDAC1.
For the molecule `C/C=C/CNNC(=O)c1ccc(CNC(=O)c2ccccc2)cc1` [Compound 2a, (E)-N-(4-(2-(but-2-en-1-yl)hydrazine-1-carbonyl)benzyl)benzamide], the HMGB-1 secretion entry in the data set with Raw264.7 was “attenuated”. Also, the IC50 with HEK293 Lysate was over 10000 nM; at HDAC3 it was 1530 ± 228 nM.
As to `CC(C)NNC(=O)c1ccc(CNC(=O)c2ccccc2)cc1` [Compound 2b, N-(4-(2-isopropylhydrazine-1-carbonyl)benzyl)benzamide], the IC50 in the data set on HEK293 Lysate and at HDAC3 was over 10000 nM throughout.
Turning to `CC/C=N/NC(=O)c1ccc(CNC(=O)c2ccccc2)cc1` [Compound 2c, (E)-N-(4-(2-propylidenehydrazine-1-carbonyl)benzyl)benzamide], the IC50 in the data set with HEK293 Lysate and on HDAC3 was over 10000 nM in each case.
`CCCNNC(=O)c1ccc(CNC(=O)c2ccccc2)cc1` [Compound 2d, N-(4-(2-propylhydrazine-1-carbonyl)benzyl)benzamide]: the IC50 was 77.6 ± 9.52 nM on HDAC2 and 13.2 ± 2.01 nM at HDAC1.
Taken in the same sequence, the figures for `CCCCCNNC(=O)c1ccc(CNC(=O)c2ccccc2)cc1` [Compound 2e, N-(4-(2-pentylhydrazine-1-carbonyl)benzyl)benzamide] were 43.6 ± 33.2 nM and 20.2 ± 5.04 nM.
Take `O=C(NCc1ccc(C(=O)NNCCC(F)(F)F)cc1)c1ccccc1` [Compound 2f, N-(4-(2-(3,3,3-trifluoropropyl)hydrazine-1-carbonyl)benzyl)benzamide]: the IC50 is 1230 ± 136 nM in the data set with HEK293 Lysate and 69.1 ± 0.52 nM on HDAC3.
On to `O=C(NCc1ccc(C(=O)NNCC2CC2)cc1)c1ccccc1` [Compound 2g, N-(4-(2-(cyclopropylmethyl)hydrazine-1-carbonyl)benzyl)benzamide], for which the IC50 in the data set on HEK293 Lysate was determined as 1620 ± 196 nM; on HDAC3, 39.93 ± 0.25 nM.
In the case of `CCCCCCCNNC(=O)c1ccc(CNC(=O)c2ccccc2)cc1` [Compound 2h, N-(4-(2-heptylhydrazine-1-carbonyl)benzyl)benzamide], the concentration for half-maximal inhibition (IC50) in the data set with HEK293 Lysate was determined as 2160 ± 896 nM; on HDAC3, 569 ± 84.9 nM.
Taken in the same sequence, the figures for `CCCCCCCCNNC(=O)c1ccc(CNC(=O)c2ccccc2)cc1` [Compound 2i, N-(4-(2-octylhydrazine-1-carbonyl)benzyl)benzamide] were over 10000 nM and 1090 ± 334 nM.
Taken in the same sequence, the figures for `CCCCCCNNC(=O)c1ccc(CNC(=O)c2ccccc2)cc1` [Compound 2j, N-(4-(2-hexylhydrazine-1-carbonyl)benzyl)benzamide] were 550 ± 134 nM and 184 ± 74.5 nM.
Taken in the same sequence, the figures for `CCCCCCCCCCNNC(=O)c1ccc(CNC(=O)c2ccccc2)cc1` [Compound 2k, N-(4-(2-decylhydrazine-1-carbonyl)benzyl)benzamide] were over 10000 nM and over 10000 nM.
For `CCNNC(=O)c1ccc(CNC(=O)c2ccccc2)cc1` [Compound 2l, N-(4-(2-ethylhydrazine-1-carbonyl)benzyl)benzamide], the values for the IC50 in the data set with HEK293 Lysate and on HDAC3 were 427 ± 110 nM and 187.3 ± 0.6 nM, respectively.
Taken in the same sequence, the figures for `O=C(NCc1ccc(C(=O)NNCC2CCC2)cc1)c1ccccc1` [Compound 2m, N-(4-(2-(cyclobutylmethyl)hydrazine-1-carbonyl)benzyl)benzamide] were 1880 ± 212 nM and 84.4 ± 7.22 nM.
For the molecule `CCNNC(=O)c1ccc(CNC(=O)/C=C/c2ccccc2)cc1` [Compound 3a, N-(4-(2-ethylhydrazine-1-carbonyl)benzyl)cinnamamide], the concentration for half-maximal inhibition (IC50) amounted to 171 ± 34.2 nM in the data set with HEK293 Lysate, 76.6 ± 9.74 nM on HDAC2, 19.7 ± 1.41 nM on HDAC3 and 29.5 ± 10.7 nM at HDAC1.
With `CCCCNNC(=O)c1ccc(CNC(=O)/C=C/c2ccccc2)cc1` [Compound 3c, N-(4-(2-butylhydrazine-1-carbonyl)benzyl)cinnamamide], the IC50 was 70 ± 26.4 nM at HDAC2 and 60.2 ± 21 nM on HDAC1.
Turning to `CCCCCNNC(=O)c1ccc(CNC(=O)/C=C/c2ccccc2)cc1` [Compound 3d, N-(4-(2-pentylhydrazine-1-carbonyl)benzyl)cinnamamide], the IC50 worked out at 691 ± 54.7 nM with HEK293 Lysate, 99.6 ± 17.4 nM on HDAC2, 32.5 ± 1.15 nM on HDAC3 and 47.4 ± 16.8 nM on HDAC1.
Taken in the same sequence, the figures for `CCCCCCNNC(=O)c1ccc(CNC(=O)/C=C/c2ccccc2)cc1` [Compound 3e, N-(4-(2-hexylhydrazine-1-carbonyl)benzyl)cinnamamide] were 1720 ± 139 nM, 139 ± 29.9 nM, 150 ± 81.6 nM and 81.4 ± 12 nM.
As for `CCCCc1nc2cc(/C=C/C(=O)NO)ccc2n1CCN(CC)CC` [Pracinostat], in data set [2], the AUCinf was 1,841 ng·h/mL, the Cmax is listed as 2,632 ng/mL and the t1/2 was 2.4 h.
In the case of `Cc1[nH]c2ccccc2c1CCNCc1ccc(/C=C/C(=O)NO)cc1` [panobinostat], the t1/2 was 2.9 h in data set [2] (in rodent) and 16 h in data set [3]. Further, the Cmax in data set [2] was 116 ng/mL. For the same molecule, the “increase in Hsp70 level” value in the data set on MV4-11 cells is “observed”. The “mutagenicity (mini-Ames)” value in [1] is “Ames positive”.
For `O=C(CCCCCCC(=O)Nc1ccccc1)NO` [vorinostat, suberanilohydroxamic acid, reference compound], the t1/2 in [2] is 0.2 h. Besides, the HMGB-1 secretion entry in the data set on Raw264.7 is recorded as “attenuated”. The “increase in Hsp70 level” value with MV4-11 cells was “observed”. Also, the “NO production, acute treatment” value in data set [4] is “only inhibited LPS induced NO production but not ATP driven ones”.
